These results are taken from patent publication US10265310B2, “6-membered cyclic amines or lactames substituted with urea and phenyl” (GRÜNENTHAL GMBH, priority 2016, dated 2019).

One assay concerns the target FPR2 (Homo sapiens (Human), UniProt P25090). Briefly: Agonistic activity (calcium FLIPR) in hFPR2-Aq-CHO cells. Type of assay: cell-based. Conditions: FLIPR Calcium 5 dye fluorescence, agonistic response. The procedure, abridged: (§1)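 CHO cells expressing hFPR1-Gα15 or hFPR2-Aq were plated 18 hours, then loaded with Calcium 5 dye (pH 7.4, probenecid) for 30 minutes at 37° C. Compounds (final 10 μM to 100 pM, 11 half-log points) were added on FLIPR, with fluorescence followed for 5 minutes. EC50 came from the rise over basal relative to no-compound wells.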

A further assay has as its target FPR1 (Homo sapiens (Human), UniProt P21462). Briefly: Agonistic activity (calcium FLIPR) in hFPR1-Gα15-CHO cells. The assay is classed as cell-based. The following applies: FLIPR Calcium 5 dye fluorescence, agonistic response. The procedure, abridged: as §1

FPR1, sequence (P21462 whole entry): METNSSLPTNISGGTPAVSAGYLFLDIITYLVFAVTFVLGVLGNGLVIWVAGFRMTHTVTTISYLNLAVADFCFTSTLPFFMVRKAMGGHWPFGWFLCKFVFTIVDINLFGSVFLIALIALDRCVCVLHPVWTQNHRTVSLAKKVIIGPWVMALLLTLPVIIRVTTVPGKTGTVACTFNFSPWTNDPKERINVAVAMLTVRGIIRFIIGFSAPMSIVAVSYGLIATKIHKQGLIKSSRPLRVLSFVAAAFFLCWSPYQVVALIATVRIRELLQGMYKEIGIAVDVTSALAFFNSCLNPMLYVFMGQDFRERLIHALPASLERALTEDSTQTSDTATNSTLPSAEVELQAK
FPR2, sequence (P25090 whole entry): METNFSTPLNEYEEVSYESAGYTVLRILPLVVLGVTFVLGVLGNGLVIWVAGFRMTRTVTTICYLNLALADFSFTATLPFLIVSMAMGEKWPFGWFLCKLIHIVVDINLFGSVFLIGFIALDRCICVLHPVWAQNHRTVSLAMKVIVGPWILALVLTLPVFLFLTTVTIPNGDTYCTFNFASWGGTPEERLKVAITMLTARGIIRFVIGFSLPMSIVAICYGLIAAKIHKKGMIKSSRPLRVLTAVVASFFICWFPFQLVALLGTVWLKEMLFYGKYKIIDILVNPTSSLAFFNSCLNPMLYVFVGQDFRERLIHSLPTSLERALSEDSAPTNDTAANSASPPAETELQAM

For orientation: EC50 means the concentration needed to bring the measured effect to its halfway point. For the molecule `COc1cc(F)c(C2CCN(C(=O)C3CC3)CC2NC(=O)Nc2ccc(Cl)cc2)c(F)c1` (single isomer, unassigned; ent2) [Example 40, trans-ent2-1-(4-chlorophenyl)-3-(1-(cyclopropanecarbonyl)-4-(2,6-difluoro-4-methoxyphenyl)piperidin-3-yl)urea], the EC50 at FPR2 and on FPR1 was 1 to 1000 nM in each case.
Consider `COc1ccc(C2CC(=O)NCC2NC(=O)Nc2ccc(Cl)cc2)c(F)c1` (single isomer, unassigned; ent2) [Example 43, trans-ent2-1-(4-chlorophenyl)-3-(4-(2-fluoro-4-methoxyphenyl)-6-oxopiperidin-3-yl)urea], for which the EC50 at FPR2 and on FPR1 was 1 to 1000 nM each time.
As to `COc1ccc(C2CCNCC2NC(=O)Nc2ccc(Cl)cc2)c(F)c1` (single isomer, unassigned; ent2) [Example 46, ent2-1-(4-chlorophenyl)-3-(4-(2-fluoro-4-methoxyphenyl)piperidin-3-yl)urea], the EC50 on FPR2 and on FPR1 was 1 to 1000 nM each time.
On to `COc1cc(F)c(C2CC(=O)NCC2NC(=O)Nc2ccncc2)c(F)c1` (single isomer, unassigned; ent2) [Example 48, ent2-1-(4-(2,6-difluoro-4-methoxyphenyl)-6-oxopiperidin-3-yl)-3-(pyridin-4-yl)urea], for which the EC50 on FPR2 and at FPR1 was 1 to 1000 nM each time.
Consider `COc1cc(F)c(C2CC(=O)NCC2NC(=O)Nc2ccc(Cl)cc2)c(F)c1` (single isomer, unassigned; ent2) [Example 50, trans-ent2-1-(4-chlorophenyl)-3-(4-(2,6-difluoro-4-methoxyphenyl)-6-oxopiperidin-3-yl)urea], for which the EC50 at FPR2 was less than 1 nM; on FPR1, 1 to 1000 nM.
For the molecule `COCCN1CC(NC(=O)Nc2ccc(Cl)cc2)C(c2ccc(OC)cc2F)CC1=O` (single isomer, unassigned; ent2) [Example 60, trans-ent2-1-(4-Chlorophenyl)-3-[4-(2-fluoro-4-methoxy-phenyl)-1-(2-methoxy-ethyl)-6-oxo-piperidin-3-yl]-urea], the EC50 at FPR2 and on FPR1 was 1 to 1000 nM throughout.
`COc1ccc(C2CC(=O)N(CC(F)F)CC2NC(=O)Nc2ccc(Cl)cc2)c(F)c1` (single isomer, unassigned; ent2) [Example 62, trans-ent2-1-(4-Chlorophenyl)-3-[1-(2,2-difluoro-ethyl)-4-(2-fluoro-4-methoxy-phenyl)-6-oxo-piperidin-3-yl]-urea]: the half-maximal effective concentration (EC50) on FPR2 and on FPR1 was 1 to 1000 nM throughout.
`COCCN1CC(NC(=O)Nc2ccc(Cl)cc2)C(c2ccc(F)cc2F)CC1=O` (single isomer, unassigned; ent2) [Example 64, trans-ent2-1-(4-Chlorophenyl)-3-[4-(2,4-difluoro-phenyl)-1-(2-methoxy-ethyl)-6-oxo-piperidin-3-yl]-urea]: the concentration for a half-maximal effect (EC50) at FPR2 and at FPR1 was 1 to 1000 nM each time.
Take `O=C(Nc1ccc(Cl)cc1)NC1CN(CC(F)F)C(=O)CC1c1ccc(F)cc1F` (single isomer, unassigned; ent2) [Example 66, trans-ent2-1-(4-Chlorophenyl)-3-[1-(2,2-difluoro-ethyl)-4-(2,4-difluoro-phenyl)-6-oxo-piperidin-3-yl]-urea]: the EC50 on FPR2 and on FPR1 was 1 to 1000 nM each time.
Consider `O=C1CC(c2ccc(F)cc2F)C(NC(=O)Nc2ccc(Cl)cc2)CN1` (single isomer, unassigned; ent2) [Example 68, trans-ent2-1-(4-Chlorophenyl)-3-[4-(2,4-difluoro-phenyl)-6-oxo-piperidin-3-yl]-urea], for which the EC50 on FPR2 and at FPR1 was 1 to 1000 nM throughout.
Take `COc1ccc(C2CC(=O)NCC2NC(=O)Nc2ccc(Cl)cc2)cc1` (single isomer, unassigned; ent2) [Example 77, trans-ent2-1-(4-chlorophenyl)-3-(4-(4-methoxyphenyl)-6-oxopiperidin-3-yl)urea]: the EC50 on FPR2 and on FPR1 was 1 to 1000 nM throughout.
As for `O=C(Nc1ccc(Cl)cc1)NC1CNCCC1c1ccccc1` (single isomer, unassigned; ent2) [Example 81, trans-ent2-1-(4-chlorophenyl)-3-(4-phenylpiperidin-3-yl)urea], the EC50 at FPR2 and on FPR1 was 1 to 1000 nM each time.
`O=C(Nc1ccc(Cl)cc1)NC1CN(C(=O)C2CC2)CCC1c1ccccc1` (single isomer, unassigned; ent2) [Example 84, trans-ent2-1-(4-chlorophenyl)-3-(1-(cyclopropanecarbonyl)-4-phenylpiperidin-3-yl)urea]: the EC50 on FPR2 and at FPR1 was 1 to 1000 nM in each case.
Regarding `COc1ccc([C@@H]2CC(=O)N(C)C[C@H]2NC(=O)Nc2ccc(Cl)cc2)cc1` (stereo in doubt) [Example 7, rac-trans-1-(4-chlorophenyl)-3-(4-(4-methoxyphenyl)-1-methyl-6-oxopiperidin-3-yl)urea], the EC50 at FPR2 and on FPR1 was less than 1 nM each time.
In the case of `COc1ccc([C@H]2CC(=O)N(C)C[C@@H]2NC(=O)Nc2ccc(Cl)cc2)cc1` (stereo in doubt) [Example 10, trans-ent1-(4-chlorophenyl)-3-(4-(4-methoxyphenyl)-1-methyl-6-oxopiperidin-3-yl)urea], the EC50 on FPR2 and at FPR1 was less than 1 nM each time.
`COc1ccc([C@@H]2CC(=O)N(C)C[C@H]2NC(=O)Nc2ccc(Cl)cc2)cc1` (stereo in doubt) [Example 11, trans-ent2-(4-chlorophenyl)-3-(4-(4-methoxyphenyl)-1-methyl-6-oxopiperidin-3-yl)urea]: the EC50 on FPR2 and on FPR1 was 1 to 1000 nM throughout.
For “ent1-1-(4-chlorophenyl)-3-(4-(2-fluoro-4-methoxyphenyl)piperidin-3-yl)urea [Example 45]”, the figures for the concentration giving a half-maximal response (EC50) at FPR2 and on FPR1 were less than 1 nM and 1 to 1000 nM, respectively.
